Data: patent US20220233566A1, “NOVEL CARBONATE COMPOUND HAVING PYRROLOPYRIMIDINE SKELETON OR PHARMACEUTICALLY ACCEPTABLE SALT THEREOF” (TAIHO PHARMACEUTICAL CO., LTD., priority 2019, published 2022)
pIC50: −log10 of the molar value.

Legend:
[1] = test system: human brain tumor cell line (U-87 MG); assay: Evaluation 1 of antitumor effect and toxicity in mouse (U-87 MG subcutaneous transplant); assay type: in vivo, BALB/cA Jcl-nu/nu mice
Procedure: (§1) The day of grouping mice was determined Day 0.
IRs of Comparative Example 2-compound administration group and Example 1-compound administration group on the final day of evaluation (Day 6 in Comparative Example 2 and Day 13 in Example 1) are shown in FIG. 1 and BWC versus elapsed days is shown in FIG. 2.

[2] = test system: human hematopoietic organ tumor cell line (MV-4-11); assay: Evaluation 3 of antitumor effect and toxicity in mouse (MV-4-11 subcutaneous transplant); assay type: in vivo
Procedure: as §1
On the final day of evaluation, the blood cell components (lymphocytes: LYMPH (Lymphocytes)) of individual groups were analyzed.

[3] = Presence of prodrug in mouse and absorbency (plasma AUC after oral administration); assay type: in vivo; conditions: male, Balb/cA, mouse, 9.9 umol/kg, mice, 9.9 μmol/kg, administered compound itself in plasma, read-out: AUC0-6hr
Procedure: The dosage amounts of the compounds of Comparative Examples 1 to 5 and Examples 1 to 26 are those (mole/10 mL/kg) shown in Tables. Solutions for administration were prepared with an 0.5% aqueous solutions of HPMC so as to satisfy the dosage amounts.
Note that, the “amount of mole/10 mL/kg” means as follows: for example “10 mmol/10 mL/kg” means that 10 mmol of a test compound per body-weight (1 kg) of a mouse was dispersed or dissolved in a solution (10 mL) for administration. The same applies hereinafter.
The solutions for administration prepared above were orally administered to mice (Balb/cA, male) not fasted each by use of an oral administration sonde.
The mice were anesthetized with isoflurane 0.5, 1, 2, 4 and 6 hours after administration and blood was taken from the facial vein by use of a specific needle (animal lancet) and a heparin-coated hematocrit tube.
The blood sampled was immediately centrifuged (13000 rpm, 2 minutes, 4° C.) to prepare the plasma samples. After proteins were removed from the plasma samples, the concentrations of the test compound in the plasma samples were measured by LC/MS/MS.
The value of “area under the curve” (AUC) of drug concentration in blood versus time was calculated using analysis software such as Phoenix (registered trademark) WinNonlin (registered trademark).
In Table 3, “Comparative Example 1” and “Comparative Example 2” represent the “compound (Br form) of Comparative Example 1” and the “compound (I form) of Comparative Example 2”, respectively. In Table 4, “Comparative Example 6” represents the “compound (C1 form) of Comparative Example 6”.

A431 = assay: Growth suppression activity to human tumor cell line (Evaluation 2); assay type: cell-based; conditions: Homo sapiens, A-431, 72 h, Human epidermoid carcinoma, A431, 3 days
Procedure: (§2) Human tumor cell lines different in type were suspended in mediums, seeded in individual wells of a multi-well plate and cultured. On the day after initiation of culture, serially diluted solutions of a compound were added. Culture was carried out for further 3 days. Cells were counted by a CellTiter-Glo (manufactured by Promega KK) in accordance with the protocol recommended by Promega KK. Cell viability was calculated in accordance with the equation shown below and the concentration (IC50 (nM)) of the compound at which 50% of cell growth is inhibited was obtained.
(§3) T: Intensity of light emitted from a well containing a compound
(§4) C: Intensity of light emitted from a well containing no compound

RKO = assay: as above; assay type: cell-based; conditions: 72 h, Human colorectal cancer, 3 days
Procedure: as §2, §3, §4

H2122 = assay: as above; assay type: cell-based; conditions: NCI-H2122, 72 h, Human lung cancer, H2122, 3 days
Procedure: as §2, §3, §4

HCC827 = assay: as above; assay type: cell-based; conditions: Homo sapiens, HCC827, 72 h, Human lung cancer, HCC827, 3 days
Procedure: as §2, §3, §4

H1650 = assay: as above; assay type: cell-based; conditions: NCI-H1650, 72 h, Human lung cancer, H1650, 3 days
Procedure: as §2, §3, §4

H358 = assay: as above; assay type: cell-based; conditions: NCI-H358, 72 h, Human lung cancer, H358, 3 days
Procedure: as §2, §3, §4

A549 = assay: as above; assay type: cell-based; conditions: A549, 72 h, Human lung cancer, A549, 3 days
Procedure: as §2, §3, §4

SK-BR-3 = assay: as above; assay type: cell-based; conditions: Homo sapiens, SK-BR-3, 72 h, Human breast cancer, SK-BR-3, 3 days
Procedure: as §2, §3, §4

[4] = test system: human brain tumor cell line (U-87 MG); assay: Evaluation 2 of antitumor effect and toxicity in mouse (U-87 MG subcutaneous transplant); assay type: in vivo, BALB/cA Jcl-nu/nu mice; conditions: Day 6, oral every day, Example 5 14.6 mg/kg/day vs Comparative Example 2 12 mg/kg/day
Procedure: as §1
In order to evaluate “effect versus toxicity”, a ratio based on IR and BWC (effect index) was obtained, and Example 5-compound administration group was compared to Comparative Example 2-compound administration group.
Effect indexes of Comparative Example 2-Compound (I form) and Example 5-compound administration groups on Day 6 are shown in FIG. 3.

H520 = assay: Growth suppression activity to human tumor cell line (Evaluation 3); assay type: cell-based; conditions: NCI-H520, 72 h; Human lung cancer, H520, 3 days
Procedure: as §2, with “of a” for “of the”
as §3, §4

A427 = assay: as above; assay type: cell-based; conditions: A-427, 72 h; Human lung cancer, A427, 3 days
Procedure: as §2, with “of a” for “of the”
as §3, §4

[5] = U-87 MG, oral every day from Day 1, Example 1 15.4 mg/kg/day
[6] = MV-4-11, oral every day from Day 1, Example 1 10.8 mg/kg/day

Nc1ncnc2c1c(I)cn2[C@@H]1O[C@H](CO)[C@@H](OC(=O)OC2CCCC2)[C@@H]1F [Example 1, (2R,3R,4S,5R)-5-(4-amino-5-iodo-7H-pyrrolo[2,3-d]pyrimidin-7-yl)-4-fluoro-2-(hydroxymethyl)tetrahydrofuran-3-yl cyclopentyl carbonate]
antitumor effect (tumor-growth inhibition rate, IR) [1, 5]: high antitumor effect
effect on body weight (BWC) [1, 5]: mild
continuation of administration compared to Comparative Example 2-compound administration group ([1]; U-87 MG, oral every day, Example 1 15.4 mg/kg/day vs Comparative Example 2 12 mg/kg/day): longer
final day of evaluation (administration continued as long as weight loss was acceptable, until 20% or more) ([1]; oral every day, Comparative Example 2 12 mg/kg/day, Example 1 15.4 mg/kg/day): 13 days
antitumor effect (RTV) [2, 6]: remarkable antitumor effect (tumor regression was confirmed)
effect on body weight and hematological toxicity (BWC, lymphocytes T/C %) [2, 6]: low
continuation of administration compared to Comparative Example 2-compound administration group ([2]; MV-4-11, oral every day, Example 1 10.8 mg/kg/day vs Comparative Example 2 12 mg/kg/day): longer

Nc1ncnc2c1c(Cl)cn2[C@@H]1O[C@H](CO)[C@@H](O)[C@@H]1F [Comparative Example 6, (2R,3R,4S,5R)-5-(4-amino-5-chloro-7H-pyrrolo[2,3-d]pyrimidin-7-yl)-4-fluoro-2-(hydroxymethyl) tetrahydrofuran-3-ol]
AUC(0-t) [3]: 2.07 µM·h
pIC50 (A431): 6.91
pIC50 (RKO): 6.87
pIC50 (H2122): 7.24
pIC50 (HCC827): 6.10
pIC50 (H1650): 7.51
pIC50 (H358): 6.56
pIC50 (A549): 7.27
pIC50 (SK-BR-3): 7.06

CC(C)OC(=O)O[C@H]1[C@H](F)[C@H](n2cc(I)c3c(N)ncnc32)O[C@@H]1CO [Example 5, (2R,3R,4S,5R)-5-(4-Amino-5-iodo-7H-pyrrolo[2,3-d]pyrimidin-7-yl)-4-fluoro-2-(hydroxymethyl)tetrahydrofuran-3-yl isopropyl carbonate]
effect versus toxicity (effect index, ratio based on IR and BWC) [4]: high compared to that of Comparative Example 2-compound administration group

Nc1ncnc2c1c(I)cn2[C@@H]1O[C@H](CO)C(O)C1(F)F (stereo partly drawn) [Comparative Example 7, (2R,3R,4S,5R)-5-(4-amino-5-iodo-7H-pyrrolo[2,3-d]pyrimidin-7-yl)-4,4-difluoro-2-(hydroxymethyl) tetrahydrofuran-3-ol, reference compound]
pIC50 (H520): 6.33
pIC50 (A427): 5.94
